According to PubChem BioAssay (NCI):
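Briefly, cells in 96-well plates were exposed to five compound concentrations for 48 h, and endpoints were estimated by linear interpolation. GI50 marks 50% less growth. TGI: total growth inhibition.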

How the values were obtained:
Assay in all cases: NCI anticancer screen, dose series, 48 h; in the data active = GI50 below about 0.43 µM; inactive = the rest
DU-145 prostate = test system: DU-145 prostate
EKVX NSCLC = test system: EKVX NSCLC
TK-10 renal = test system: TK-10 renal
MDA-MB-435 = test system: MDA-MB-435
MOLT-4 leukemia = test system: MOLT-4 leukemia
HOP-62 NSCLC = test system: HOP-62 NSCLC
SK-MEL-5 melanoma = test system: SK-MEL-5 melanoma
T-47D breast = test system: T-47D breast
UO-31 renal = test system: UO-31 renal
CCRF-CEM leukemia = test system: CCRF-CEM leukemia
K-562 leukemia = test system: K-562 leukemia
SF-295 CNS = test system: SF-295 CNS
SK-MEL-28 melanoma = test system: SK-MEL-28 melanoma
ACHN renal = test system: ACHN renal
SN12C renal = test system: SN12C renal
SW-620 colon = test system: SW-620 colon
SK-OV-3 ovarian = test system: SK-OV-3 ovarian
A498 renal = test system: A498 renal
SK-MEL-2 melanoma = test system: SK-MEL-2 melanoma
NCI/ADR-RES ovarian = test system: NCI/ADR-RES ovarian
HS 578T breast = test system: HS 578T breast
MDA-MB-231 breast = test system: MDA-MB-231 breast
PC-3 prostate = test system: PC-3 prostate
HCC-2998 colon = test system: HCC-2998 colon
SF-268 CNS = test system: SF-268 CNS
OVCAR-8 ovarian = test system: OVCAR-8 ovarian
HOP-92 NSCLC = test system: HOP-92 NSCLC
OVCAR-3 ovarian = test system: OVCAR-3 ovarian
LOX IMVI melanoma = test system: LOX IMVI melanoma
SF-539 CNS = test system: SF-539 CNS
NCI-H226 lung = test system: NCI-H226 lung
NCI-H23 lung = test system: NCI-H23 lung
UACC-257 melanoma = test system: UACC-257 melanoma
SNB-75 CNS = test system: SNB-75 CNS
SNB-19 CNS = test system: SNB-19 CNS
OVCAR-5 ovarian = test system: OVCAR-5 ovarian
BT-549 breast = test system: BT-549 breast
RXF 393 renal = test system: RXF 393 renal
IGROV1 ovarian = test system: IGROV1 ovarian
A549 NSCLC = test system: A549 NSCLC
HL-60(TB) leukemia = test system: HL-60(TB) leukemia
HCT-116 colon = test system: HCT-116 colon
HT29 colon = test system: HT29 colon
M14 melanoma = test system: M14 melanoma
CAKI-1 renal = test system: CAKI-1 renal
NCI-H460 lung = test system: NCI-H460 lung
U251 CNS = test system: U251 CNS
786-0 renal = test system: 786-0 renal
NCI-H522 lung = test system: NCI-H522 lung
OVCAR-4 ovarian = test system: OVCAR-4 ovarian
RPMI-8226 leukemia = test system: RPMI-8226 leukemia
KM12 colon = test system: KM12 colon
MALME-3M melanoma = test system: MALME-3M melanoma
SR leukemia = test system: SR leukemia
HCT-15 colon = test system: HCT-15 colon
COLO 205 colon = test system: COLO 205 colon
MCF7 breast = test system: MCF7 breast
UACC-62 melanoma = test system: UACC-62 melanoma

O=C(c1ccco1)c1c(C(F)(F)F)nc2ccc(C(F)(F)F)cc2[n+]1[O-]
> 87.5 µM: TGI (T-47D breast)
34.5 µM: TGI (SF-539 CNS)
36.4 µM: TGI (SNB-75 CNS)
65.4 µM: TGI (MDA-MB-231 breast)
46.3 µM: TGI (HOP-62 NSCLC)
47.7 µM: TGI (MALME-3M melanoma)
> 75.1 µM: TGI (OVCAR-3 ovarian)
inactive: GI50 (DU-145 prostate) 27.3 µM | GI50 (EKVX NSCLC) 19.9 µM | GI50 (TK-10 renal) 23.9 µM | GI50 (MDA-MB-435) > 81.6 µM | GI50 (MOLT-4 leukemia) > 100 µM | GI50 (HOP-62 NSCLC) 19.8 µM | GI50 (SK-MEL-5 melanoma) 31.4 µM | GI50 (T-47D breast) 36.3 µM | GI50 (UO-31 renal) 38.7 µM | GI50 (K-562 leukemia) > 73.8 µM | GI50 (SF-295 CNS) 33.2 µM | GI50 (SK-MEL-28 melanoma) 25.2 µM | GI50 (ACHN renal) 23.4 µM | GI50 (SN12C renal) 43.4 µM | GI50 (SW-620 colon) > 59.1 µM | GI50 (SK-OV-3 ovarian) 35 µM | GI50 (A498 renal) 42.4 µM | GI50 (SK-MEL-2 melanoma) > 64.6 µM | GI50 (NCI/ADR-RES ovarian) 44.2 µM | GI50 (HS 578T breast) 21.2 µM | GI50 (MDA-MB-231 breast) 23.7 µM | GI50 (PC-3 prostate) 41.9 µM | GI50 (HCC-2998 colon) 57.6 µM | GI50 (SF-268 CNS) 33.3 µM | GI50 (OVCAR-8 ovarian) 35.3 µM | GI50 (HOP-92 NSCLC) 21 µM | GI50 (OVCAR-3 ovarian) 28 µM | GI50 (LOX IMVI melanoma) 47.8 µM | GI50 (SF-539 CNS) 18.3 µM | GI50 (NCI-H226 lung) 32.1 µM | GI50 (NCI-H23 lung) > 80.4 µM | GI50 (UACC-257 melanoma) > 52.6 µM | GI50 (SNB-75 CNS) 16.9 µM | GI50 (SNB-19 CNS) 27.5 µM | GI50 (OVCAR-5 ovarian) 46.9 µM | GI50 (BT-549 breast) 24.1 µM | GI50 (RXF 393 renal) 26.5 µM | GI50 (IGROV1 ovarian) 35.6 µM | GI50 (A549 NSCLC) > 64.4 µM | GI50 (HL-60(TB) leukemia) > 100 µM | GI50 (HCT-116 colon) 29.3 µM | GI50 (HT29 colon) > 61.4 µM | GI50 (M14 melanoma) 35.8 µM | GI50 (CAKI-1 renal) 24.5 µM | GI50 (NCI-H460 lung) > 63.2 µM | GI50 (U251 CNS) 25.9 µM | GI50 (786-0 renal) 27 µM | GI50 (NCI-H522 lung) 62.1 µM | GI50 (OVCAR-4 ovarian) 24.1 µM | GI50 (RPMI-8226 leukemia) > 100 µM | GI50 (KM12 colon) 68 µM | GI50 (MALME-3M melanoma) 20.8 µM | GI50 (SR leukemia) > 91.7 µM | GI50 (HCT-15 colon) > 86.9 µM | GI50 (COLO 205 colon) > 100 µM | GI50 (MCF7 breast) 33.6 µM | GI50 (UACC-62 melanoma) 44.2 µM
> 69.6 µM: TGI (EKVX NSCLC)
> 85.9 µM: TGI (UACC-257 melanoma)
80.6 µM: TGI (SK-MEL-28 melanoma)
99.5 µM: TGI (SF-268 CNS)
> 79.7 µM: TGI (A498 renal) | TGI (SNB-19 CNS)
> 49.4 µM: TGI (CCRF-CEM leukemia)
> 92.7 µM: TGI (IGROV1 ovarian)
68.6 µM: TGI (OVCAR-4 ovarian)
60 µM: TGI (ACHN renal)
50 µM: TGI (TK-10 renal)
54.5 µM: TGI (HS 578T breast)
61.5 µM: TGI (U251 CNS)
> 75.8 µM: TGI (DU-145 prostate)
> 100 µM: TGI (MDA-MB-435) | TGI (MOLT-4 leukemia) | TGI (UO-31 renal) | TGI (K-562 leukemia) | TGI (SF-295 CNS) | TGI (SN12C renal) | TGI (SW-620 colon) | TGI (SK-OV-3 ovarian) | TGI (SK-MEL-2 melanoma) | TGI (NCI/ADR-RES ovarian) | TGI (PC-3 prostate) | TGI (HCC-2998 colon) | TGI (OVCAR-8 ovarian) | TGI (LOX IMVI melanoma) | TGI (NCI-H226 lung) | TGI (NCI-H23 lung) | TGI (OVCAR-5 ovarian) | TGI (A549 NSCLC) | TGI (HL-60(TB) leukemia) | TGI (HCT-116 colon) | TGI (HT29 colon) | TGI (M14 melanoma) | TGI (NCI-H460 lung) | TGI (NCI-H522 lung) | TGI (RPMI-8226 leukemia) | TGI (KM12 colon) | TGI (SR leukemia) | TGI (HCT-15 colon) | TGI (COLO 205 colon) | TGI (MCF7 breast) | TGI (UACC-62 melanoma)
> 67.1 µM: TGI (SK-MEL-5 melanoma)
> 83.2 µM: TGI (CAKI-1 renal)
59.8 µM: TGI (BT-549 breast)
62.2 µM: TGI (RXF 393 renal)
49.2 µM: TGI (HOP-92 NSCLC)
62 µM: TGI (786-0 renal)
